These results are taken from US10654808B2, “Tyrosine kinase inhibitor and pharmaceutical composition comprising same” (GUANGDONG RAYNOVENT BIOTECH CO., LTD., priority 2015, dated 2020).

The test system of one test is HUVEC. The experiment in a line: CellTiter-Glo luminescent cell viability assay, HUVEC stimulated with hVEGF-165. Type of test: cell-based. The settings on record: Homo sapiens, hVEGF-165 20 ng/ml, 72 hours, read-out: IC50 detected by CellTiter-Glo, HUVEC. The procedure: The intracellular ATP changes were measured by CellTiter-Glo® Luminescent Cell Viability Assay. The IC50 value of the compounds was used as an index to evaluate the inhibitory effect of the compounds on HUVEC in vitro.
HUVEC cell line (ATCC), EGM-2 BulletKit (Lonza), hVEGF-165 (Cell Signaling), trypsin (Invitrogen), DPBS (Hyclone), 384 cell plate (Greiner), 384 compound plate (Greiner), CO2 incubator (Thermo), centrifuge (Eppendorf), Vi-cell cell counter (Beckman Coulter), Bravo Automatic Liquid Workstation (Agilent), Envision (Perkin Elmer)
B: Cell plating: HUVEC cells were resuspended with starved medium (only containing 2% FBS and 0.1% GA-1000) and diluted to a concentration of 20,000/mL. The diluted cells were added to a 384 plate (Greiner), 50 μl per well. The cell plates were placed in a 37° C., 5% CO2 incubator overnight.
C: Drug addition: the test compounds were diluted 4 times to obtain a total of 10 doses at a final concentration of 10 uM to 0.038 nM, two parallel wells. The middle plate was added with 47.6 uL of starved medium per well. 2.4 μl of compounds was transferred from a gradient dilution compound plate to a middle plate and mixed well. 5 μl of liquid was transferred from the middle plate to a cell plate. Incubate for 1 hour at 37° C. in a 5% CO2 incubator, 5 μl of starved medium containing hVEGF-165 (the final concentration was 20 ng/ml) and Heparin (the final concentration was 1 ng/m) were added and incubated at 37° C. in a 5% CO2 incubator for 72 hours.
D: After 72 hours, 30 μl of assay reagents was added and incubated at room temperature for 10-30 minutes, Envision was used to read the plate.
The reading was converted into suppression rate (%) (Max−Sample)/(Max−Min)*100%. Parameter curve fitting (Model 205 in XLFIT5, iDBS) was used to measure to obtain IC50 data.
Background: ATP-based viability assays read luminescence as a measure of living cells.

The next test concerns the target T1, PDGFRB (Homo sapiens, UniProt P09619).
T1 construct: purchased Millipore
In words: Z'-LYTE in vitro enzyme activity assay, PDGFRB. Type of test: biochemical. The note with it: 100 μM ATP, 60 minutes, room temperature; read-out: IC50 detected by Z'-LYTE, PDGFRB. Summed up:
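Z′-LYTE FRET kinase assay using 40 nM PDGFRB, 2 μM Tyr4 peptide and 100 μM ATP in HEPES pH 7.5 with Mg2+/Mn2+ and 1% DMSO. The reaction ran 60 min at room temperature, followed by development for 60 min at 23 °C. IC50 values came from 4-parameter fits over 11 concentrations (10 μM–0.17 nM).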

The next test has as its system Calu 6 Transplant model. In words: Tumor growth inhibition (TGI), Calu 6 transplant model in mice. The format is in vivo. The note with it: QD. As to the method:
The evolution and growth trends of the tumor was evaluated by the relationship between tumor volume and time. The long axis (L) and short axis (W) of the subcutaneous tumor were measured twice a week by the caliper and the volume of the tumor (TV) was calculated by the formula ((L×W^2)/2). TGI was calculated by the difference between the median tumor volume of the mice in the solvent group and the median tumor volume of the mice in the drug group expressed as a percentage of the tumor volume in the solvent control group
Calculated by the following formula: % TGI=((intermediate tumor volume (control)−intermediate tumor volume (administration group))/intermediate tumor volume (control group))×100%
The original statistical analysis was performed by repeated variance analysis, and then a multiple comparisons were performed using the Scheffe psot hoc test method. Individual solvent (0.5% methylcellulose+0.2% Tween aqueous solution) was a negative control.

In another test the target is T2, FGFR1 (Homo sapiens, UniProt P11362).
T2 construct: purchased Life technology
T2 sequence (P11362 22-822): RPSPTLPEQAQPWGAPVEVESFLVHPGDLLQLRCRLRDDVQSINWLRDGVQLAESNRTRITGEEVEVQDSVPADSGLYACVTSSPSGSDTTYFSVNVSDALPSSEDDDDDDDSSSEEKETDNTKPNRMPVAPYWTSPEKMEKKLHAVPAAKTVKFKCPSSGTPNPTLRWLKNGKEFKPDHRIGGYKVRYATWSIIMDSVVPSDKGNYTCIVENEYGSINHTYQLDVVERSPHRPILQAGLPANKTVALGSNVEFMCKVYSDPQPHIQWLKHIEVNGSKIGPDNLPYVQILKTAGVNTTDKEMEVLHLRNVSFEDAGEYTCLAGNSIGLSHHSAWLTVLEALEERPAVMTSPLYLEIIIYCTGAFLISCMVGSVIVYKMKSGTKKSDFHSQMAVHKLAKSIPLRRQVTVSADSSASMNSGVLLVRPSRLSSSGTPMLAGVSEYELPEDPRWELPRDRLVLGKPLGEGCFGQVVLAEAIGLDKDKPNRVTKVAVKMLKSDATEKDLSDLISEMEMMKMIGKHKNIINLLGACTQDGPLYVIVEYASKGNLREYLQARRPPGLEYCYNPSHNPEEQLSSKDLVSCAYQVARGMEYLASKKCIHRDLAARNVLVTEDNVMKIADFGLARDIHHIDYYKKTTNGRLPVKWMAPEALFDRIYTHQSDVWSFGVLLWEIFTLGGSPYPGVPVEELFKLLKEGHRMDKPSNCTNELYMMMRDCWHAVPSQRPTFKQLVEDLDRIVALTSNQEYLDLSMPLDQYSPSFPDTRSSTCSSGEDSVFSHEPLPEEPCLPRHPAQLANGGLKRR
In words: Z'-LYTE in vitro enzyme activity assay, FGFR1. The format is biochemical. The settings on record: 25 μM ATP, 60 minutes, room temperature; read-out: IC50 detected by Z'-LYTE, FGFR1. Summed up:
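Z′-LYTE FRET assay with 1 nM FGFR1, 2 μM Tyr4 peptide and 25 μM ATP in HEPES pH 7.5 with Mg/Mn, 60 min at room temperature, then development 60 min at 23 °C. Compounds tested at 11 concentrations from 10 μM to 0.17 nM in 1% DMSO. IC50 from 4-parameter fit of inhibition.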

Another test concerns the target T3, VEGFR2 (Homo sapiens, UniProt P35968).
T3 construct: purchased Life technology
In words: Z'-LYTE in vitro enzyme activity assay, VEGFR2. Type of test: biochemical. The note with it: 100 μM ATP, 60 minutes, room temperature; read-out: IC50 detected by Z'-LYTE, VEGFR2. Put shortly:
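Reaction with 3 nM VEGFR2, 2 μM Tyr1 peptide and 100 μM ATP in HEPES pH 7.5/MgCl2/EGTA/BRIJ-35, 1% DMSO, 60 min at room temperature; development reagent then 60 min at 23° C. Compounds tested at 11 threefold dilutions, 10 μM–0.17 nM final, in duplicate; IC50 from 4-parameter fit of inhibition.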

T3 sequence (P35968 20-1356): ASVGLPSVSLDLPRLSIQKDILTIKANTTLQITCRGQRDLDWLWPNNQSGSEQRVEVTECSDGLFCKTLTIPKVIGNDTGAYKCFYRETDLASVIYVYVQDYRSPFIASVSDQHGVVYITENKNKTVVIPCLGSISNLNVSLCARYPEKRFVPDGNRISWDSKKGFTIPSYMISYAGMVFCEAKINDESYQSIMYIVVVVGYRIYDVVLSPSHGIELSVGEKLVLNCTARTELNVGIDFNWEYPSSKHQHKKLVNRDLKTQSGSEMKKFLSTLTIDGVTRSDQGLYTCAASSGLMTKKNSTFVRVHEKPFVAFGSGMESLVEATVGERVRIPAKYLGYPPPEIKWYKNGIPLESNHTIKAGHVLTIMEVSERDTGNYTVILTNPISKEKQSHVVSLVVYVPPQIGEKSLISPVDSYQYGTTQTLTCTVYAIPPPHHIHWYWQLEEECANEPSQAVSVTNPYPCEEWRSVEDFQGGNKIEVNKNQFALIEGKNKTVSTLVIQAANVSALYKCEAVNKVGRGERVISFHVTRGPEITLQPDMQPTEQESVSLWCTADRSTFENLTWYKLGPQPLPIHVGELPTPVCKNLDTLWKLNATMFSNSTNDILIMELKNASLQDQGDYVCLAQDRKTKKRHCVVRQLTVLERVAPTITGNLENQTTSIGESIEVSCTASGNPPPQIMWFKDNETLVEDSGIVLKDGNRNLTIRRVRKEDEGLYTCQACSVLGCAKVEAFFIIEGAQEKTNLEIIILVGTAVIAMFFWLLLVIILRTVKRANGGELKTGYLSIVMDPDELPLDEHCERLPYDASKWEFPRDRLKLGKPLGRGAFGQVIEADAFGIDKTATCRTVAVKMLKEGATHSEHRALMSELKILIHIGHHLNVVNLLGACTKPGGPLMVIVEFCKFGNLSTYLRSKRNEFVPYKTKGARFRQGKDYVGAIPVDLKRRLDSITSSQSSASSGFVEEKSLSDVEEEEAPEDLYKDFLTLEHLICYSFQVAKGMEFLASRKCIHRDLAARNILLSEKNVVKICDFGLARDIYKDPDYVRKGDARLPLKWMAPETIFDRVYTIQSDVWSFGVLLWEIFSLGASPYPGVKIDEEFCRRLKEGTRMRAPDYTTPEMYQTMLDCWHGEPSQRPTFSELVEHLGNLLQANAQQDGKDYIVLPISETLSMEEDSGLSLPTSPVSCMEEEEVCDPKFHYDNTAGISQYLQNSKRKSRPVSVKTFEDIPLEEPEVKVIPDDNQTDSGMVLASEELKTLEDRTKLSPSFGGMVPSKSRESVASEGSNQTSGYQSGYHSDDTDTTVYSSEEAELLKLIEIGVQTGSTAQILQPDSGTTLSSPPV
T1 sequence (P09619 33-1106): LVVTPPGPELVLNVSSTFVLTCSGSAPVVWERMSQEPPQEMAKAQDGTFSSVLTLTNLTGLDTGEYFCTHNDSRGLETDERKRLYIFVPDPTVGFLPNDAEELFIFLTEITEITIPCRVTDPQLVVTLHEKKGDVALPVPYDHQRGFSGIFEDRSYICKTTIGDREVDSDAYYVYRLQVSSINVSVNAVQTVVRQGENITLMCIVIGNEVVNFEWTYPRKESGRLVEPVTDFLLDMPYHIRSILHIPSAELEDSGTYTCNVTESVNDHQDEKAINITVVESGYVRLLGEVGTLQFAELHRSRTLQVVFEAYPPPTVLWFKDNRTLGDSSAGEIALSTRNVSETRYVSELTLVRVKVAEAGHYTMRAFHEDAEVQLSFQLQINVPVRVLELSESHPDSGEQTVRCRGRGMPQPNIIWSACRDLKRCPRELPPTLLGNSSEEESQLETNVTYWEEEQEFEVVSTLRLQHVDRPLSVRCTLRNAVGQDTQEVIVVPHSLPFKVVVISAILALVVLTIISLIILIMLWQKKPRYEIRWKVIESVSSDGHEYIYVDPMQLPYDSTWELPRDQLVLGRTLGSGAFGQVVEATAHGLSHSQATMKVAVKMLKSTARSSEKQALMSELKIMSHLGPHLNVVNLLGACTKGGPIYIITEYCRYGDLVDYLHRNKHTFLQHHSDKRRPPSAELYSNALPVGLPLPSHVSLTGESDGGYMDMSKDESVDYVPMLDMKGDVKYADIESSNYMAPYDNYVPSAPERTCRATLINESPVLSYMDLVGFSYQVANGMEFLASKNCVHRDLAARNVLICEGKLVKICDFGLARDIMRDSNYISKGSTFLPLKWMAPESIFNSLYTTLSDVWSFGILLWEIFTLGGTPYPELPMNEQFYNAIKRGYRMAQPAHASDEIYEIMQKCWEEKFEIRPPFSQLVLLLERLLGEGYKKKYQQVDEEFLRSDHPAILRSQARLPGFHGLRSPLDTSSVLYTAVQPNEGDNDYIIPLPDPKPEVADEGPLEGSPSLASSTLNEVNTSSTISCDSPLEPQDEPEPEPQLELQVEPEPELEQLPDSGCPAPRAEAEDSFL

For the compound `CCNC(=O)Nc1ccc(Oc2ccnc3cc(-c4cn(C)cn4)ccc23)c(F)c1Cl` [Example 216], the IC50 in the test with HUVEC is less than 100 nM; on PDGFRB, 50 to 200 nM; on FGFR1, less than 50 nM; on VEGFR2 it was less than 50 nM. For the same compound, the “TGI % (last administration)” value in the test with Calu 6 Transplant model (10 mg/kg) is on record as 83%.
With `COc1cc2nccc(Oc3ccc(NC(=S)NC4CC4)c(Cl)c3)c2cc1C(N)=O` [Example 1], the IC50 in the test with HUVEC was less than 100 nM; at PDGFRB it was 50 to 200 nM; on FGFR1, 200 to 1000 nM; on VEGFR2 it was less than 50 nM. Moreover, in the test on Calu 6 Transplant model (50 mg/kg), the “TGI % (last administration)” value worked out at 57%.
As to `[2H]C([2H])([2H])NC(=O)c1coc2cc(Oc3ccnc4cc(OC)c(C(N)=O)cc34)ccc12` [Example 200], the IC50 in the test on HUVEC is less than 100 nM; at PDGFRB, less than 50 nM; at FGFR1 it was 50 to 200 nM; on VEGFR2, less than 50 nM. The “TGI % (last administration)” value in the test on Calu 6 Transplant model (100 mg/kg) is reported as 59%.
Take `COc1cc2nccc(Oc3ccc(NC(=S)N(C)C)c(Cl)c3)c2cc1C(N)=O` [Example 55]: the IC50 lay within 100 to 1000 nM with HUVEC, 200 to 1000 nM on PDGFRB, 50 to 200 nM at FGFR1 and 50 to 200 nM at VEGFR2.
Take `COc1cc2nccc(Oc3ccc(NC(=S)NC4CC4)c(Cl)c3F)c2cc1C(N)=O` [Example 78]: the IC50 was less than 100 nM with HUVEC, less than 50 nM on PDGFRB, 50 to 200 nM at FGFR1 and less than 50 nM on VEGFR2.
Turning to `Cn1cnc(-c2ccc3c(Oc4ccc(NC(=O)N5CC(F)(F)C5)c(Cl)c4F)ccnc3c2)c1` [Example 218], the IC50 in the test with HUVEC is 100 to 1000 nM; on PDGFRB it was less than 50 nM; at FGFR1, 50 to 200 nM; at VEGFR2, less than 50 nM.
Consider `COc1cc2nccc(Oc3ccc(NC(=S)Nc4ccccc4)c(Cl)c3)c2cc1C(N)=O` [Example 2], for which the IC50 with HUVEC is less than 100 nM; on PDGFRB it was 50 to 200 nM; on FGFR1, 200 to 1000 nM; on VEGFR2 it was 50 to 200 nM.
Regarding `COc1cc2nccc(Oc3cc4occ(C(=O)NC5CC5)c4cc3F)c2cc1C(N)=O` [Example 207], the IC50 in the test on HUVEC is 100 to 1000 nM; on PDGFRB, less than 50 nM; on FGFR1, 200 to 1000 nM; at VEGFR2 it was less than 50 nM.
Consider `Cn1cnc(-c2ccc3c(Oc4ccc(NC(=S)NC5CC5)c(Cl)c4)ccnc3c2)c1` [Example 212], for which the IC50 in the test with HUVEC is 100 to 1000 nM; at PDGFRB, less than 50 nM; on FGFR1 it was 200 to 1000 nM; at VEGFR2, less than 50 nM.
With `CCNC(=S)Nc1ccc(Oc2ccnc3cc(OC)c(C(N)=O)cc23)cc1Cl` [Example 56], the IC50 in the test on HUVEC was less than 100 nM; on PDGFRB, less than 50 nM; at FGFR1, 50 to 200 nM; on VEGFR2, less than 50 nM.
For `CCNC(=O)Nc1ccc(Oc2ccnc3cc(-c4cn(C)cn4)ccc23)cc1Cl` [Example 220], the IC50 in the test with HUVEC was less than 100 nM; at PDGFRB, 50 to 200 nM; at FGFR1 it was less than 50 nM; at VEGFR2, less than 50 nM.
In the case of `Cn1cnc(-c2ccc3c(Oc4ccc(NC(=O)NC5CC5)c(Cl)c4F)ccnc3c2)c1` [Example 214], the IC50 with HUVEC was less than 100 nM; at PDGFRB it was 50 to 200 nM; on FGFR1 it was less than 50 nM; at VEGFR2 it was less than 50 nM.
Take `COCCOc1cc2nccc(Oc3ccc(NC(=S)NC4CC4)c(Cl)c3)c2cc1C(N)=O` [Example 174]: the IC50 was less than 100 nM in the test on HUVEC, less than 50 nM at PDGFRB, 200 to 1000 nM on FGFR1 and less than 50 nM on VEGFR2.

The IC50 is the concentration at which inhibition is half-maximal.
